Converted amounts (≈) assume the structure as drawn. Read-outs that look alike come from different tables or passages of the source. Marks after values point to notes of the source that are not given here.
Columns and labels:
[1] = test system: DNA sequence 5′-CGCATATATGCG-3′; assay: Native mass spectrometry of DNA binding stoichiometry; settings: 9 μM DNA, 100 μM S-MGB, 150 mM ammonium acetate
Method: DNA sample preparation: The DNA oligonucleotide sequence 5′-[…]-3′ was purchased in lyophilised form from Alpha DNA, Montreal, Canada, and used without further purification; its purity was assessed via NMR. We prepared 100 μM stock solutions of DNA with 150 mM ammonium acetate buffer solution (Fisher Scientific, Loughborough, Leicestershire, UK) and 2 mM potassium chloride solution (Fisher Scientific, Loughborough, Leicestershire, UK). This solution was annealed at 90 degrees for 10 min and allowed to cool to room temperature. A total of 10 mM S-MGB stock in 100% DMSO (Sigma-Aldrich, St. Louis, MO, USA) was diluted to a 1 mM S-MGB solution with 150 mM ammonium acetate. The final samples were prepared from this solution to yield final concentrations of 9 μM DNA, 100 μM KCl, 100 μM S-MGB and 1% DMSO. DNA solutions containing no S-MGB included 1% DMSO and were used as controls.
Mass spectrometry measurements: Native mass spectrometry experiments were carried out using a Synapt G2Si instrument (Waters, Manchester, UK) with a nanoelectrospray ionisation source (nESI). Mass calibration was performed using a separate infusion of NaI cluster ions. […]

genomic DNA from salmon = assay: UV-Vis DNA thermal melting, genomic DNA; format: binding; settings: 10 µM S-MGB, 0.02 mg/mL salmon gDNA
Method: Salmon DNA (D1626, Sigma-Aldrich) at 1 mg/mL in 1 mM phosphate buffer (pH 7.4) containing 0.27 mM KCl and 13.7 mM NaCl (P4417, Sigma-Aldrich) was annealed at 90 °C for 10 min. MGB-BP-3 at 10 mM in DMSO was diluted with the same phosphate buffer, and combined with the salmon DNA stock, to yield a single sample with 10 µM S-MGB and 0.02 mg/mL gDNA in 1 mM phosphate buffer containing 0.27 mM KCl and 13.7 mM NaCl. Control samples containing only MGB-BP-3 or gDNA were prepared, respectively. The samples were melted at a rate of 0.5 °C/min from 45 °C to 90 °C, with spectra recorded at 260 nm on a UV-1900 UV-vis spectrophotometer fitted with a Peltier temperature controller (Shimadzhu, Kyoto, Japan), using LabSolutions (Tm Analysis) software. The melting temperatures (Tms) of the MGB-BP-3:DNA complexes were determined by fitting a sigmoidal function using a Boltzmann distribution in OriginPro. Two independent experiments were carried out and the values quoted with an error no worse than ±0.5 °C.

S. aureus ATCC 43300 = assay: Antibacterial assay (MIC, broth dilution); format: cell-based; settings: Staphylococcus aureus, read-out: S. aureus MIC
Method: The inhibition of bacterial growth was determined by OD600, using a Tecan Infinite M Nano plate reader. The percentage of growth inhibition was calculated for each well, using the negative control (medium only) and positive control (bacteria without inhibitors) on the same plate. […] Each MIC determination was carried out in triplicate, on separate days.

[2] = test system: L. donovani LV82 luc1 (MHOM/ET/67:LV82); assay: Anti-Leishmania assay, intracellular amastigotes in bone marrow-derived macrophages, luciferase readout; format: cell-based; settings: read-out: L. donovani IC50
Method: The compounds were screened in vitro for their antileishmanial activity against the intracellular amastigote stage. Briefly, bone marrow-derived macrophages (0.5 × 10^5 cells per well) were infected using a 20:1 host cell: parasite ratio with luciferase-expressing L. donovani LV82 luc1 (MHOM/ET/67:LV82). […] Amphotericin B solution was used as a positive control and was used at a starting concentration of 1 μM. The medium was removed from each sample at 72 h post-infection and replaced with 150 μL luciferin solution (150 μg mL^−1 luciferin in serum-free medium). The amount of bioluminescent signal emitted/well was determined and used to calculate the mean suppression in the bioluminescent signal for each test sample compared to the mean control values. The EC50 values were calculated and the mean EC50 was calculated from the three separate experiments.

d(5′-CGCATATATGCG-3′) = assay: UV-Vis DNA thermal melting, short DNA oligo; format: binding; settings: 2 MGB: 1 DNA, 10 mM PBS pH 7.4, 50 mM NaCl
Method: The DNA oligonucleotide sequence 5′-[…]-3′ was purchased in lyophilised form from Alpha DNA, Canada, and used without further purification, with purity assessed via NMR. The DNA oligomer was melted at a rate of 0.5 °C/min in 10 mM PBS buffer solution (pH 7.4) with 50 mM NaCl on a Cary 300 BIO UV–visible spectrophotometer fitted with a Peltier temperature controller. The programs were set and the data were processed using Cary WinUV software. The duplex oligomer was made to a concentration of 6 × 10^−6 M, heated to 90 °C and allowed to cool to room temperature unaided. This was mixed with sufficient S-MGB to give the appropriate ratio of 2 MGB: 1 DNA. For the reference melting temperature, no S-MGB was added. Samples were heated from 10 °C to 90 °C and cooled from 90 °C to 10 °C, with the spectra being recorded at 260 nm during both of these cycles. The melting temperatures (Tm) of the duplex oligomers were determined by fitting a sigmoidal function using a Boltzmann distribution in OriginPro.

[3] = test system: bloodstream form T. b. brucei (Lister 427); set-up: method as in PMID 34447938; settings: data previously reported ref 19; cited from earlier work
hERG ion channel [4] = molecular target: T1, hERG ion channel (Homo sapiens, UniProt Q12809); set-up: method as in PMID 22948178; settings: compounds at 10 μM; data previously reported ref 20; cited from earlier work
T1 construct: expressed in transfected cells; host or cells: HEK293 cells (gift of Dr. J. Mitcheson, University of Leicester)
T1 sequence (Q12809 whole entry): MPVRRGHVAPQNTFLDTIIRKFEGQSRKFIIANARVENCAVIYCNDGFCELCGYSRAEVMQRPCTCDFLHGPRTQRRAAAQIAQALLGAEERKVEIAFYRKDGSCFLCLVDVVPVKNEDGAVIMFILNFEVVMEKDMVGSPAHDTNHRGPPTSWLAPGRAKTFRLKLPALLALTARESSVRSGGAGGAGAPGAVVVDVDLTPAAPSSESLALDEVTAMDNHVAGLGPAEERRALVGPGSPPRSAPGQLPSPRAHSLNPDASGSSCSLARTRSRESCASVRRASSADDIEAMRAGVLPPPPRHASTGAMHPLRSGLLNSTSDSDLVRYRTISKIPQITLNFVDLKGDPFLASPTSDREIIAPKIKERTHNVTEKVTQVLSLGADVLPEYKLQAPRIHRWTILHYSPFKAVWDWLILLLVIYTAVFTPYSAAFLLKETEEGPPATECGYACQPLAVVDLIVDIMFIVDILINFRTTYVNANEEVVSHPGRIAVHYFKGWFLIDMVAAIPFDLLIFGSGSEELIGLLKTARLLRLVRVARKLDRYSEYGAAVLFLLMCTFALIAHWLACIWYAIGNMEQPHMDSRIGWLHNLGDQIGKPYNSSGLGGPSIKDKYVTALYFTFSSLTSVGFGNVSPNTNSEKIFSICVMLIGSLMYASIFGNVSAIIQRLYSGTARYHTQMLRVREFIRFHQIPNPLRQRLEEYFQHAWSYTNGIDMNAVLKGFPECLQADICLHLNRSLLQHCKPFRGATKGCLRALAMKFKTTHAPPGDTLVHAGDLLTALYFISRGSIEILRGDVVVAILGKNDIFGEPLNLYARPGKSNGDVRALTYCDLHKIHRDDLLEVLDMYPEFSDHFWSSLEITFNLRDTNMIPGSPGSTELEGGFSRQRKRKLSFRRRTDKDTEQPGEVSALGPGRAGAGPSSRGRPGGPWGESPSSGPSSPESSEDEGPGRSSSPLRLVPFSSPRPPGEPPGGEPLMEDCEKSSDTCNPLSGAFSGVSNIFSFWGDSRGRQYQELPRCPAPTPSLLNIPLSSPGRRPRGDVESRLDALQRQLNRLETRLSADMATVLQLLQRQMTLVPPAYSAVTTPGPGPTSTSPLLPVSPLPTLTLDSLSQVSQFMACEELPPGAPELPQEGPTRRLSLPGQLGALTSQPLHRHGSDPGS

hERG ion channel [5] = molecular target: T1, hERG ion channel; assay: hERG cell-binding assay, [3H]-astemizole displacement in hERG-transfected HEK293 cells; settings: compounds at 10 μM
Method: hERG-transfected HEK293 cells were kindly gifted by Dr. J. Mitcheson, University of Leicester. The cell cultures were maintained in Gibco Dulbecco’s Modified Eagle Medium (D-MEM) + GlutaMAX1^TM medium supplemented with 10% foetal bovine serum ([…]), 1% penicillin–streptomycin and 0.8% Geneticin in a Sanyo humidified incubator (37 °C, 5% CO2). Once at 80–90% confluency, the cells were lifted using a PBS-based, enzyme-free Cell Dissociation Buffer. The cell suspension was counted using a Bright Line Haemocytometer and centrifuged at 1000 rpm for 5 min, and the supernatant discarded. The pellet was resuspended in ice-cold Tris-HCl, pH 7.4 (20 mM), with 1% phenylmethylsulfonyl fluoride (PMSF). […]
[^3H]-Astemizole binding in hERG-transfected HEK293 cells was performed in a […] total volume according to the following conditions: cells (~200,000 cells per assay tube, […]), [^3H]- astemizole (0.5 nM, […]), incubation buffer (10 mM HEPES, pH 7.4, 130 mM NaCl, 5 mM KCl, 0.8 mM MgCl2, 10 mM glucose, 0.1% BSA, 100 mL) for the total binding or drug compound ([…], 100 mL) for the single-point assay. Non-specific binding was determined using nonradiolabelled astemizole ([…], 100 mL). […] The radioactivity retained on the filters (pre-soaked in 0.5% PEI) was measured via counting in scintillation fluid (4 mL, Tri-Carb 1500 Packard; Emulsifier-Safe).

[6] = test system: bloodstream form T. b. brucei (Lister 427); assay: Anti-Trypanosoma alamarBlue assay; format: cell-based
Method: The bloodstream form T. b. brucei (Lister 427) was cultured in HMI-11 medium (Gibco) supplemented with 10% heat-inactivated FBS (Gibco), at 37 °C in a humidified 5% CO2 environment.
The EC50 values were determined using the in vitro alamarBlue assay. T. b. brucei parasites (2 × 10^4 cells per mL), were seeded into serial dilutions of the test compounds to a final volume of 200 μL and incubated for 48 h, after which 20 μL of 0.49 mM resazurin dye (Sigma-Aldrich, St. Louis, MO, USA) was added and the cells were incubated for a further 24 h. The reduction of resazurin was measured using a fluorimeter (FLUOstar Optima, BMG Labtech, Ortenberg, Germany) at 544 nm excitation and 590 nm emission wavelengths. The EC50 values were determined using Prism 5 software (GraphPad, San Diego, CA, USA). All experiments were carried out on at least three independent occasions.

[7] = LUC1, intracellular amastigotes, 72 h post-infection, mean of 3 experiments

Cn1cc(NC(=O)c2cc(NC(=O)c3ccc(/C=C/c4cnc5ccccc5c4)cc3)cn2C)cc1C(=O)NCCN1CCOCC1 [S-MGB-3, 1-methyl-N-[1-methyl-5-({[2-(4-morpholinyl)ethyl]amino}carbonyl)-1H-pyrrol-3-yl]-4-({4-[(E)-2-(3-quinolinyl)ethenyl]benzoyl}amino)-1H-pyrrole-2-carboxamide]
binding stoichiometry to double-stranded DNA by nMS [1]: selectively bind to double-stranded DNA as a dimer only | binding stoichiometry to double-stranded DNA by nMS ([1]; listed as S-MGB-BP-3): bind 2xS-MGB molecules | Tm increase (genomic DNA from salmon): 12.6 °C | Melting Temperature of gDNA + S-MGB complex (genomic DNA from salmon; gDNA alone 69.6 ± 0.3): 82.2 ± 0.1 °C

N=C(N)c1ccc(OCCCCCOc2ccc(C(=N)N)cc2)cc1 [compound 1]
MIC (S. aureus ATCC 43300; ATCC43300, 18 h, 37 °C): 50 µM (≈ 17 µg/mL) | IC50 [2, 7]: 3.5 ± 0.1 µM | ΔTm, DNA melting temperature increase (d(5′-CGCATATATGCG-3′)): 11 °C | T. b. brucei MIC [3]: 0.78 * μM

N=C(N)c1ccc(-c2cc3ccc(C(=N)N)cc3[nH]2)cc1 [compound 2]
MIC (S. aureus ATCC 43300; ATCC43300, 18 h, 37 °C): 3.12 µM (≈ 0.865 µg/mL) | IC50 [2, 7]: 5.7 ± 0.4 µM | ΔTm, DNA melting temperature increase (d(5′-CGCATATATGCG-3′)): 15 °C | hERG % displacement of [3H]-astemizole (hERG ion channel [4]): 58 ** % | T. b. brucei MIC [3]: 1.56 * μM

Cn1cc(NC(=O)c2cc(NC(=O)c3cc(NC=O)cn3C)cn2C)cc1C(=O)NCCC(=N)N [compound 3]
MIC (S. aureus ATCC 43300; ATCC43300, 18 h): 0.78 µM (≈ 0.376 µg/mL) | IC50 ([2]; LUC1, 72 h): 5.1 ± 0.7 µM | ΔTm, DNA melting temperature increase (d(5′-CGCATATATGCG-3′)): 17 °C | hERG % displacement of [3H]-astemizole (hERG ion channel [4]): 64 ** % | T. b. brucei MIC [3]: <0.19 * μM

COc1cccc(/C=C/c2ccc(C(=O)Nc3cc(C(=O)Nc4cc(C(=O)NCC[N+]5([O-])CCOCC5)n(C)c4)n(C)c3)cc2)c1 [compound 206]
hERG % displacement of [3H]-astemizole (hERG ion channel [5]): 44% | MIC (S. aureus ATCC 43300; ATCC43300, 18 h, 37 °C): > 100 µM | IC50 [2, 7]: 2.4 ± 0.3 µM | ΔTm, DNA melting temperature increase (d(5′-CGCATATATGCG-3′)): 1 °C | MIC [6]: 6.25 µM (≈ 3.92 µg/mL)

COc1ccc(/C=C/c2ccc(C(=O)Nc3cc(C(=O)Nc4cc(C(=O)NCC[N+]5([O-])CCOCC5)n(C)c4)n(C)c3)cn2)cc1 [compound 207]
hERG % displacement of [3H]-astemizole (hERG ion channel [5]): 45% | MIC (S. aureus ATCC 43300; ATCC43300, 18 h, 37 °C): > 100 µM | IC50 [2, 7]: 3.1 ± 1 µM | ΔTm, DNA melting temperature increase (d(5′-CGCATATATGCG-3′)): 1 °C | MIC [6]: 12.5 µM (≈ 7.85 µg/mL)
